In US20100041089A1, “IMPROVED METHOD FOR DETECTING CHEMICAL […]” (priority 2006, published 2010):

System: yeast genes (expressed mRNA)
Assay: DNA chip measurement of expressed mRNA of yeast genes after culture with a toxic chemical substance
Assay type: cell-based, Saccharomyces cerevisiae S288C
Conditions: for level of expressed mRNA in the presence of chemical substance / level in the absence of chemical substance: cultured two hours with the chemical substance; for The level of expressed mRNA in the presence of chemical substance/The level of expressed mRNA in the absence of chemical substance: cultured two hours with substance
How it was run: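 Expression is given as treated/untreated fluorescence ratio on a whole-genome yeast DNA chip, a ratio of two or more being significant. Log-phase S288C cultures in YPD at 25 °C received the chemical for 2 h at a dose that slows growth without killing. mRNA was reverse-transcribed with Cy3- or Cy5-dUTP.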

[Cl][Cd][Cl] [(2), CdCl2]
level of expressed mRNA in the presence of chemical substance / level in the absence of chemical substance (yeast gene YJL097W): 1.1
The level of expressed mRNA in the presence of chemical substance/The level of expressed mRNA in the absence of chemical substance (yeast gene YJL151C): 2.4
The level of expressed mRNA in the presence of chemical substance/The level of expressed mRNA in the absence of chemical substance (yeast gene YJL152W): 1.5
The level of expressed mRNA in the presence of chemical substance/The level of expressed mRNA in the absence of chemical substance (yeast gene YJL161W): 2.2
The level of expressed mRNA in the presence of chemical substance/The level of expressed mRNA in the absence of chemical substance (yeast gene YJL171C): 0.7
The level of expressed mRNA in the presence of chemical substance/The level of expressed mRNA in the absence of chemical substance (yeast gene YJR008W): 1.5
level of expressed mRNA in the presence of chemical substance / level in the absence of chemical substance (yeast gene YJR030C): 4.4
The level of expressed mRNA in the presence of chemical substance/The level of expressed mRNA in the absence of chemical substance (yeast gene YJR054W): 0.9
level of expressed mRNA in the presence of chemical substance / level in the absence of chemical substance (yeast gene YKL051W): 1.1
The level of expressed mRNA in the presence of chemical substance/The level of expressed mRNA in the absence of chemical substance (yeast gene YKL071W): 3.8
The level of expressed mRNA in the presence of chemical substance/The level of expressed mRNA in the absence of chemical substance (yeast gene YKL086W): 1.1
level of expressed mRNA in the presence of chemical substance / level in the absence of chemical substance (yeast gene YKL097C): 1.6
level of expressed mRNA in the presence of chemical substance / level in the absence of chemical substance (yeast gene YKL100C): 1.1
The level of expressed mRNA in the presence of chemical substance/The level of expressed mRNA in the absence of chemical substance (yeast gene YKL151C): 3.1
The level of expressed mRNA in the presence of chemical substance/The level of expressed mRNA in the absence of chemical substance (yeast gene YKL153W): 1.4
The level of expressed mRNA in the presence of chemical substance/The level of expressed mRNA in the absence of chemical substance (yeast gene YKL195W): 0.5
level of expressed mRNA in the presence of chemical substance / level in the absence of chemical substance (yeast gene YKR040C): 3.7
The level of expressed mRNA in the presence of chemical substance/The level of expressed mRNA in the absence of chemical substance (yeast gene YKR091W): 2.3
The level of expressed mRNA in the presence of chemical substance/The level of expressed mRNA in the absence of chemical substance (yeast gene YLR054C): 1.5
The level of expressed mRNA in the presence of chemical substance/The level of expressed mRNA in the absence of chemical substance (yeast gene YLR149C): 1.9
The level of expressed mRNA in the presence of chemical substance/The level of expressed mRNA in the absence of chemical substance (yeast gene YLR152C): 1.3
The level of expressed mRNA in the presence of chemical substance/The level of expressed mRNA in the absence of chemical substance (yeast gene YLR194C): 2.2
level of expressed mRNA in the presence of chemical substance / level in the absence of chemical substance (yeast gene YLR226W): 1.8
The level of expressed mRNA in the presence of chemical substance/The level of expressed mRNA in the absence of chemical substance (yeast gene YLR324W): 1.2
level of expressed mRNA in the presence of chemical substance / level in the absence of chemical substance (yeast gene YLR338W): 1.6
The level of expressed mRNA in the presence of chemical substance/The level of expressed mRNA in the absence of chemical substance (yeast gene YLR350W): 1.9
The level of expressed mRNA in the presence of chemical substance/The level of expressed mRNA in the absence of chemical substance (yeast gene YLR387C): 1.6
level of expressed mRNA in the presence of chemical substance / level in the absence of chemical substance (yeast gene YLR392C): 0.9
level of expressed mRNA in the presence of chemical substance / level in the absence of chemical substance (yeast gene YLR415C): 2.4
level of expressed mRNA in the presence of chemical substance / level in the absence of chemical substance (yeast gene YLR427W): 1.0
The level of expressed mRNA in the presence of chemical substance/The level of expressed mRNA in the absence of chemical substance (yeast gene YLR460C): 2.1
level of expressed mRNA in the presence of chemical substance / level in the absence of chemical substance (yeast gene YML013W): 1.0
level of expressed mRNA in the presence of chemical substance / level in the absence of chemical substance (yeast gene YML029W): 1.5
level of expressed mRNA in the presence of chemical substance / level in the absence of chemical substance (yeast gene YML041C): 1.0
level of expressed mRNA in the presence of chemical substance / level in the absence of chemical substance (yeast gene YML079W): 1.7
The level of expressed mRNA in the presence of chemical substance/The level of expressed mRNA in the absence of chemical substance (yeast gene YML117W): 2.2
The level of expressed mRNA in the presence of chemical substance/The level of expressed mRNA in the absence of chemical substance (yeast gene YMR009W): 1.9
The level of expressed mRNA in the presence of chemical substance/The level of expressed mRNA in the absence of chemical substance (yeast gene YMR067C): 0.9
level of expressed mRNA in the presence of chemical substance / level in the absence of chemical substance (yeast gene YMR068W): 0.7
level of expressed mRNA in the presence of chemical substance / level in the absence of chemical substance (yeast gene YMR071C): 2.0
The level of expressed mRNA in the presence of chemical substance/The level of expressed mRNA in the absence of chemical substance (yeast gene YMR090W): 9.5
The level of expressed mRNA in the presence of chemical substance/The level of expressed mRNA in the absence of chemical substance (yeast gene YMR095C): 2.0
The level of expressed mRNA in the presence of chemical substance/The level of expressed mRNA in the absence of chemical substance (yeast gene YMR097C): 1.0
The level of expressed mRNA in the presence of chemical substance/The level of expressed mRNA in the absence of chemical substance (yeast gene YMR102C): 2.9
The level of expressed mRNA in the presence of chemical substance/The level of expressed mRNA in the absence of chemical substance (yeast gene YMR107W): 3.9
level of expressed mRNA in the presence of chemical substance / level in the absence of chemical substance (yeast gene YMR160W): 1.3
The level of expressed mRNA in the presence of chemical substance/The level of expressed mRNA in the absence of chemical substance (yeast gene YMR180C): 0.9
The level of expressed mRNA in the presence of chemical substance/The level of expressed mRNA in the absence of chemical substance (yeast gene YMR184W): 5.4
The level of expressed mRNA in the presence of chemical substance/The level of expressed mRNA in the absence of chemical substance (yeast gene YMR191W): 2.4
The level of expressed mRNA in the presence of chemical substance/The level of expressed mRNA in the absence of chemical substance (yeast gene YMR295C): 1.0
The level of expressed mRNA in the presence of chemical substance/The level of expressed mRNA in the absence of chemical substance (yeast gene YMR316W): 2.9
level of expressed mRNA in the presence of chemical substance / level in the absence of chemical substance (yeast gene YNL026W): 1.0
The level of expressed mRNA in the presence of chemical substance/The level of expressed mRNA in the absence of chemical substance (yeast gene YNL044W): 0.9
